Assay: Suitability test between capsule ingredients and rosuvastatin calcium (heating, HPLC of related material RRT 0.72)
Assay type: physicochemical
Conditions: rosuvastatin 50 mg mixed with 100 mg capsule ingredient, heated at 100° C. for 2 hours, FIG. 1
Experimental: In order to evaluate interaction between the ingredients of a soft or hard capsule and statins, the following test was performed.
Specifically, gelatin (grade: 165 bloom, Geltech, Korea) which is a main ingredient of capsule; glycerol, propylene glycol and polyethylene glycol (PEG400), which are often used as a plasticizer; and sorbitol sorbitan solution (ROQUETTE, France, NF grade, containing solid content of 27.5 wt % of sorbitan and 34.4 wt % of sorbitol) were examined to evaluate the interaction with rosuvastatin calcium. In accordance with the ingredients described in Table 1, all ingredients were mixed, heated at 100° C. for 2 hours, and then evaluated by HPLC analysis.
HPLC analysis was performed using a stainless steel column of approximately 250 mm length, packed with 5 μm C18 or a similar column (Inertsil-ODS2, GL sciences) with a mobile phase of water:acetonitrile:1%(v/v) trifluoroacetic acid solution (62:37:1 (v/v)) at flow rate of 0.75 mL/min. The peak of related material as compared to the major peak of rosuvastatin, was analyzed quantitatively.

- production of related material RRT 0.72: excluding
Compound: CC(C)c1nc(N(C)S(C)(=O)=O)nc(-c2ccc(F)cc2)c1/C=C/[C@@H](O)C[C@@H](O)CC(=O)[O-].CC(C)c1nc(N(C)S(C)(=O)=O)nc(-c2ccc(F)cc2)c1/C=C/[C@@H](O)C[C@@H](O)CC(=O)[O-].[Ca+2] [Ref. Ex. 1, rosuvastatin calcium]

From patent US20140314844A1, “ORAL COMPLEX FORMULATION COMPRISING OMEGA-3 FATTY ACID AND HMG-COA REDUCTASE INHIBITOR WITH IMPROVED STABILITY” (HANMI PHARM. CO., LTD, priority 2011, published 2014)
